Data reported in the NIST ThermoML archive (doi:10.1016/j.jct.2015.04.027).

Test: xn = mol fraction of the nth substance listed
Conditions: 100 kPa, Liquid; for viscosity: Falling or rolling sphere viscometry; for mass density: Vibrating tube method

CN(C)C(=[NH2+])N(C)C.c1c[n-]cn1 [1,1,3,3-tetramethylguanidinium imidazol-1-ide] + CCCO
Conditions	mass density, 293.15 K [kg/m3]	mass density, 298.15 K [kg/m3]	mass density, 303.15 K [kg/m3]	mass density, 308.15 K [kg/m3]	mass density, 313.15 K [kg/m3]	viscosity, 293.15 K [mPa·s]	viscosity, 298.15 K [mPa·s]	viscosity, 303.15 K [mPa·s]	viscosity, 308.15 K [mPa·s]	viscosity, 313.15 K [mPa·s]
x1 = 0.0499	828.16	824.06	819.94	815.79	811.6	2.428	2.146	1.91	1.707	1.532
x1 = 0.0999	849.03	844.89	840.71	836.52	832.3	2.667	2.354	2.095	1.873	1.682
x1 = 0.2002	882.18	877.95	873.7	869.43	865.15	3.294	2.886	2.55	2.268	2.029
x1 = 0.2996	907.96	903.66	899.35	895.03	890.71	4.062	3.516	3.078	2.712	2.406
x1 = 0.4002	928.67	924.33	919.98	915.62	911.26	4.872	4.168	3.606	3.154	2.778
x1 = 0.4988	945.34	940.97	936.59	932.2	927.81	5.686	4.798	4.126	3.577	3.129
x1 = 0.6264	962.87	958.47	954.06	949.65	945.24	6.646	5.548	4.716	4.052	3.512
x1 = 0.8001	981.42	976.99	972.55	968.12	963.7	7.842	6.46	5.443	4.625	3.991
x1 = 0.9006	990.16	985.73	981.29	976.85	972.41	8.401	6.898	5.825	4.927	4.225
x1 = 1	997.25	992.8	988.35	983.9	979.46	8.952	7.287	6.044	5.097	4.358

CN(C)C(=[NH2+])N(C)C.c1c[n-]cn1 [1,1,3,3-tetramethylguanidinium imidazol-1-ide] + CCO
Conditions	mass density, 293.15 K [kg/m3]	mass density, 298.15 K [kg/m3]	mass density, 303.15 K [kg/m3]	mass density, 308.15 K [kg/m3]	mass density, 313.15 K [kg/m3]	viscosity, 293.15 K [mPa·s]	viscosity, 298.15 K [mPa·s]	viscosity, 303.15 K [mPa·s]	viscosity, 308.15 K [mPa·s]	viscosity, 313.15 K [mPa·s]
x1 = 0.0483	821.2	816.85	812.47	808.06	803.63	1.422	1.289	1.174	1.072	0.982
x1 = 0.0999	848.92	844.52	840.1	835.66	831.19	1.714	1.548	1.405	1.28	1.17
x1 = 0.2003	888.15	883.71	879.24	874.77	870.28	2.371	2.114	1.897	1.711	1.549
x1 = 0.3001	916.24	911.78	907.3	902.82	898.33	3.145	2.755	2.438	2.173	1.949
x1 = 0.3999	937.23	932.77	928.29	923.8	919.31	4.057	3.498	3.054	2.69	2.388
x1 = 0.5	953.33	948.83	944.31	939.83	935.34	5.057	4.296	3.643	3.174	2.822
x1 = 0.643	970.7	966.31	961.81	957.39	952.91	6.351	5.318	4.452	3.891	3.384
x1 = 0.7966	984.34	979.99	975.53	971.06	966.6	7.695	6.345	5.333	4.539	3.911
x1 = 0.8987	991.38	986.93	982.47	978.02	973.57	8.46	6.936	5.786	4.909	4.229
x1 = 1	997.25	992.8	988.35	983.9	979.46	8.952	7.287	6.044	5.097	4.358
